Measurements as given in patent US6875764B1, “Urea and thiourea compounds useful for treatment of coccidiosis” (New Pharma Research Sweden AB, priority 1999, dated 2005).

How the values were obtained:
[1] = system: Eimeria spp. (E. acervulina, E. maxima, E. necatrix, E. tenella and E. brunetti); test: Prophylactic anticoccidial evaluation in vivo in chickens of Habbared X breed, drug in feed; design: species or system chicken; settings: for Average number of Eimeria spp. oocysts/g faeces, day after hatch 14: day 14 after hatch; for Average number of Eimeria spp. oocysts/g faeces, day after hatch 14 / Average number of Eimeria spp. oocysts/g faeces, day after hatch 15 / Average number of Eimeria spp. oocysts/g faeces, day after hatch 16 / Average number of Eimeria spp. oocysts/g faeces, day after hatch 17 / Average number of Eimeria spp. oocysts/g faeces, day after hatch 18 / Average number of Eimeria spp. oocysts/g faeces, day after hatch 19 / Average number of Eimeria spp. oocysts/g faeces, day after hatch 21: infected orally day 10; for Average number of Eimeria spp. oocysts/g faeces, day after hatch 14 / Average number of Eimeria spp. oocysts/g faeces, day after hatch 15 / Average number of Eimeria spp. oocysts/g faeces, day after hatch 16 / Average number of Eimeria spp. oocysts/g faeces, day after hatch 17 / Average number of Eimeria spp. oocysts/g faeces, day after hatch 18 / Average number of Eimeria spp. oocysts/g faeces, day after hatch 19 / Average number of Eimeria spp. oocysts/g faeces, day after hatch 21 / Mean body weight / Mean amount of feed consumed / Average number of Eimeria spp. oocysts/g faeces, Total: in feed B49 100 ppm, B42 150 ppm, B46 100 ppm, Coxistac 60 ppm; for Average number of Eimeria spp. oocysts/g faeces, day after hatch 15: day 15 after hatch; for Average number of Eimeria spp. oocysts/g faeces, day after hatch 16: day 16 after hatch; for Average number of Eimeria spp. oocysts/g faeces, day after hatch 17: day 17 after hatch; for Average number of Eimeria spp. oocysts/g faeces, day after hatch 18: day 18 after hatch; for Average number of Eimeria spp. oocysts/g faeces, day after hatch 19: day 19 after hatch; for Average number of Eimeria spp. oocysts/g faeces, day after hatch 21: day 21 after hatch; for Mean body weight: final weight; for Mean amount of feed consumed: mean total amount per bird; for Average number of Eimeria spp. oocysts/g faeces, Total: total of days 14 to 21 after hatch; for duration of the anticoccidial infection as compared to Coxistac: B49 100 ppm, B42 150 ppm vs Coxistac 60 ppm
Method: (§1) The antiparasitic activity of the present compounds as prophylactic agents was evaluated in vivo on 100 one day old (1 day after hatch) chickens of Habbared X breed. The chickens were divided into five groups of 20 birds each, and each group was located in a separate pen (1 m×1 m). The chickens were then fed with unmedicated food up to day 7 after hatch. Fresh water was supplied ad libitum.
(§2) On day 8 after hatch, the five groups were given feed containing the following compounds (1 ppm=1 mg drug/kg feed): • Group #1: B49 (100 ppm); • Group #2: B42 (150 ppm); • Group #3: B46 (100 ppm); • Group #4: Coxistac (60 ppm), a known anticoccidial agent (see U.S. Pat. No. 3,857,948); • Group #5: no drug content (control group).
(§3) The chickens were fed as above on day 8 and 9 after hatch. On day 10 after hatch, each chicken was infected orally by 6 000-7 000 oocysts containing a mixture of 5 mature sporulated strains, namely E. acervulina, E. maxima, E. necatrix, E. tenella and E. brunetti. The groups #1-4 received drug as above from day 10 to 21 after hatch.
(§4) From day 14 to 21 after hatch, fresh fecal droplets were collected and examined daily. The average number of oocysts/g faeces was then calculated in accordance with the co-called Mc-Master technique (Soulsby, 1984).

[2] = system: mixture of 8 mature sporulated strains (E. mitis, E. hagani, E. praecox, E. acervulina, E. maxima, E. necatrix, E. tenella and E. brunetti); test: Prophylactic anticoccidial evaluation in chickens of Arbor Aker breed; assay type: in vivo, chicken; settings: 100 ppm in feed from day 3 after hatch, infected orally day 7
Method: as §1, §2, §3, §4
Moreover, the prophylactic anticoccidial effect of B42, B49 and B51 was also evaluated in chickens of Arbor Aker breed. These trials were conducted by using basically the same test protocol as that used for the chickens of Habbared X breed, albeit with the following modifications: • i) On day 3 after hatch, the tested groups of chickens receieved feed containing 100 ppm of B42, B49, B51 or Coxistac (60 ppm); • ii) On day 7 after hatch, the chickens were infected orally by oocysts containing a mixture of 8 mature sporulated strains, namely E. mitis, E. hagani, E. praecox, E. acervulina, E. maxima, E. necatrix, E. tenella and E. brunetti.

Row | Compound | feed consumption lower in comparison with the Coxistac treated group ([1]; Habbared X chickens, B46 100 ppm vs Coxistac 60 ppm) | body weight gain ([1]; Habbared X chickens, feed containing B46 100 ppm) | Average number of Eimeria spp. oocysts/g faeces, day after hatch 14 [1] | Average number of Eimeria spp. oocysts/g faeces, day after hatch 15 [1] | Average number of Eimeria spp. oocysts/g faeces, day after hatch 16 [1] | Average number of Eimeria spp. oocysts/g faeces, day after hatch 17 [1] | Average number of Eimeria spp. oocysts/g faeces, day after hatch 18 [1] | Average number of Eimeria spp. oocysts/g faeces, day after hatch 19 [1] | Average number of Eimeria spp. oocysts/g faeces, day after hatch 21 [1] | Mean body weight [1] | Mean amount of feed consumed [1] | Average number of Eimeria spp. oocysts/g faeces, Total [1] | prophylactic anticoccidial effect, results in words [2] | duration of the anticoccidial infection as compared to Coxistac ([1]; Habbared X chickens)
1 | 4-nitro-N-{[4-({4-nitro[(4-nitrophenyl)sulfonyl]anilino}-carbothioyl)-1-piperazinyl]carbothioyl}-N-(4-nitrophenyl)benzenesulfonamide [Compound B46] | ~67% | fair body weight gain | 0.0 oocysts/g faeces | 3000 oocysts/g faeces | 14000 oocysts/g faeces | 99000 oocysts/g faeces | 6000 oocysts/g faeces | 0.0 oocysts/g faeces | 0.0 oocysts/g faeces | 54.5 g | 39.3 g | 122000 oocysts/g faeces |  | 
2 | O=[N+]([O-])c1ccc(S(=O)(=O)N(C(=S)N(c2nc3ccc([N+](=O)[O-])cc3s2)S(=O)(=O)c2ccc([N+](=O)[O-])cc2)c2ccc(F)cc2)cc1 [Compound B42, N-(4-fluorophenyl)-4-nitro-N-({(6-nitro-1,3-benzothiazol-2-yl)[(4-nitrophenyl)sulfonyl]amino}carbothioyl)benzene-sulfonamide] |  |  | 0.0 oocysts/g faeces | 0.0 oocysts/g faeces | 3000 oocysts/g faeces | 7000 oocysts/g faeces | 0.0 oocysts/g faeces | 0.0 oocysts/g faeces | 0.0 oocysts/g faeces | 61.0 g | 93 g | 10000 oocysts/g faeces | essentially the same as those reported for the trials with the chickens of Habbared X breed | shorter
3 | O=C(O)c1cc(I)c(NC(=S)Nc2ccccc2)c(I)c1 [Compound B49, 4-[(anilinocarbothioyl)amino]-3,5-diiodobenzoic acid] |  |  | 0.0 oocysts/g faeces | 3000 oocysts/g faeces | 10000 oocysts/g faeces | 20000 oocysts/g faeces | 0.0 oocysts/g faeces | 0.0 oocysts/g faeces | 0.0 oocysts/g faeces | 66.0 g | 95 g | 33000 oocysts/g faeces | essentially the same as those reported for the trials with the chickens of Habbared X breed | shorter
4 | N#Cc1ccc(NC(=S)Nc2ccc([N+](=O)[O-])cc2)cc1 [Compound B51, N-(4-cyanophenyl)-N′-(4-nitrophenyl) thiourea] |  |  |  |  |  |  |  |  |  |  |  |  | comparable with those of B42 | 
5 | CC[C@@H](C(=O)[C@@H](C)[C@@H](O)[C@H](C)[C@@H]1O[C@@H]([C@@H](CC)C(=O)O)CC[C@@H]1C)[C@H]1O[C@]2(C=C[C@@H](O)[C@]3(CC[C@@](C)([C@H]4CC[C@](O)(CC)[C@H](C)O4)O3)O2)[C@H](C)C[C@@H]1C [Coxistac, reference compound] |  |  | 0.0 oocysts/g faeces | 3000 oocysts/g faeces | 4000 oocysts/g faeces | 7000 oocysts/g faeces | 2000 oocysts/g faeces | 2000 oocysts/g faeces | 0.0 oocysts/g faeces | 62.0 g | 120 g | 18000 oocysts/g faeces |  | 
